The record followed here is US4230725A, “Antiviral agent” (Sumitomo Chemical Company, Limited, priority 1977, dated 1980).

SMILES strings stand for the structures. Where a name gives a salt, the structure may show the parent alone. Read-outs that look alike come from different tables or passages of the source. Where only a bound is given, the exact number is not on record here.

Series [1] in a line: in vitro. Particulars: human, kb cells.
The test system of series [2] is Influenza Ao PR/8. The series is classed as in vivo, ddY male mice. Particulars: 7 days after infection, dose 0: 4.8.
The nature of series [3]: in vitro. The note with it: human, hela cells.
For series [4], the system named is herpes simplex virus type I (HF strain). As to the kind of experiment: Effect on the growth of herpes virus in tissue cultures (tube dilution method). The series is classed as cell-based. The note with it: for MIC: read-out: MIC (minimum virus growth inhibitory concentration); for MIC (minimum virus growth inhibitory concentration): host cells KB. The protocol:
The antiviral activity was examined by the tube dilution method. HeLa cells and KB cells for the assay were cultured in YLE medium and Eagle MEM medium in vitro, respectively, containing 10% fetal calf serum. After the cells were grown in a monolayer form, the medium was exchanged to the fresh medium supplemented with 2% fetal calf serum, and then about 1000 TCD50 of herpes simplex virus type I (HF strain) and the test compound were added. After 72 hours' incubation at 37° C., the cytotoxicity of the compound and the virus induced cytopathic effect (CPE) were observed microscopically.
The antiviral activity was expressed in minimum virus growth inhibitory concentration (MIC) and minimum cytotoxic concentration (MCC) in Table 1.

In series [5] the test system is eyes of a rabbit. As to the kind of experiment: Herpes keratitis in rabbit: toxicity control eyes (scratched, not infected). Particulars: 0.5% eye lotion. The class given is in vivo. The protocol:
After 2% cocaine was applied to the eyes of a rabbit anesthetized with barbital, the corneal epithelium of each eye was scratched and infected with herpes simplex virus type I (HF strain).
The treatment with the compound A was carried out as follows: Twelve hours after virus infection, 0.5% eye lotion of the compound A in 1.4% polyvinyl alcohol was applied every two hours, five times a day during seven days.
For seven days after infection, the lesions on the conjunctiva, cornea and iris were daily observed visually prior to the first treatment and recorded according to the scoring method.
Separately from this, eyes of a rabbit were scratched but not infected with virus, one of the eyes was similarly treated with the compound A and the other eye was treated with 1.4% polyvinyl alcohol as toxicity control.

Series [6] relates to herpes simplex virus type I (HF strain). As to the kind of experiment: Therapeutic effect on herpes encephalitis in mice. The class given is in vivo. Particulars: for Survival ratio: 21st day, untreated 0/10; for Mean survival term: 21 days. The protocol:
Mice were anesthetized with ether and were infected intracerebrally […] with about 30 LD50 of herpes simplex virus type I (HF strain). The infected mice were administered with the compound A according to various therapeutic schedules. The therapeutic effects of the compound A were examined on the basis of the survival ratios at the 3rd week after virus infection and the mean survival days.
^a Dose of administration
^b Administration schedule of each route was as follows:
i.c. (intracerebrally): Single administration simultaneously with virus
p.o. (per os): Two administrations per day during 8.5 days from 4 hours
s.c. (subcutaneously): Two administrations per day during 8.5 days from 4
hours after virus infection.
i.v. (intravenously): Single administration 3 hours after virus infection
^c The animals were examined for 21 days after infection, and mean
survival term was determined.
^d Survival ratio on the 21st day after virus infection.

Series [7] has as its system herpes and influenza viruses. As to the kind of experiment: Antiviral activity, overall statement. Particulars: against herpes and influenza viruses; in vivo as well as in vitro.
Series [8] is described as follows: Acute toxicity in mice. The note with it: mouse, in vivo.
[9] abbreviates: about 1000 TCD50, 72 hours at 37° C.

With `NC12CC3CC(CC(C3)C1)C2` [Amantadine hydrochloride, reference compound], the MCC at 72 h in series [1] and in series [3] was more than 50 µg/mL in each case. The “Lung Lesion Score” value stood at 4.3 in series [2] (10 mg/kg subcutaneous, *P < 0.05); 4.1 in series [2] (25 mg/kg subcutaneous, *P < 0.05); 4.0 in series [2] (50 mg/kg subcutaneous, *P < 0.05). The MIC in series [4] (72 h) came to 50 µg/mL. Besides, the “MIC (minimum virus growth inhibitory concentration)” value in series [4] (setting [9]) was 50 µg/mL.
As a reminder, the LD50 is the dose at which mortality reaches 50%. On to `Cl.NC12CCCC(C1)C1CCC2C1` (stereo not drawn) [Compound A, 1-Amino-2,4-ethanobicyclo[3,3,1]nonane hydrochloride], for which the MCC at 72 h in series [1] and in series [3] was 100 µg/mL in each case. The “Lung Lesion Score” value in series [2] (7.5 mg/kg subcutaneous, no asterisk) was 4.4; in series [2] (15 mg/kg subcutaneous, *P < 0.05), 4.2; in series [2] (30 mg/kg subcutaneous, *P < 0.05) it was 4.0. Also, the “effect on cure period as compared with the toxicity control” value in series [5] (five times a day during seven days, scratched uninfected rabbit eyes) was “did not prolong the cure period”. The “toxicity of the eye lotion” value in series [5] (rabbit eyes) is “no toxicity”. In series [4] (host cells HeLa, about 1000 TCD50, 72 hours at 37° C.), the MIC amounted to 2.5 µg/mL. The “MIC (minimum virus growth inhibitory concentration)” value in series [4] (setting [9]) is 2.5 µg/mL. The Survival ratio in series [6] (5 mg/kg i.c., single administration simultaneously with virus infection) is reported as 6/10; in series [6] (10 mg/kg i.v., single administration 3 hours after infection), 4/10; in series [6] (100 mg/kg p.o., two per day during 8.5 days from 4 hours after infection) it was 4/10; in series [6] (100 mg/kg s.c., two per day during 8.5 days from 4 hours after infection) it was 5/10. Besides, the Mean survival term in series [6] (5 mg/kg i.c., single administration simultaneously with virus infection, untreated 5.7) worked out at 8.3 days; in series [6] (10 mg/kg i.v., single administration 3 hours after infection, untreated 5.8), 8.1 days; in series [6] (100 mg/kg p.o., two per day during 8.5 days from 4 hours after infection, untreated 5.5), 7.7 days; in series [6] (100 mg/kg s.c., two per day during 8.5 days from 4 hours after infection, untreated 5.7), 7.6 days. In addition, the antiviral activity result in series [7] is “very strong antiviral activity”. Also, the LD50 in series [8] (iv) is 58 mg/kg; in series [8] (po), 320 mg/kg.
